Assay results published in PubChem BioAssay AID1918930 (Molecular Pharmacology Branch, DTP, NCI, 2023).
“And” between values parts separate entries of the source, which are not always exact repeats. Identical values can stand only once.

System: 233499-124-R-J3-PDC complex spheroid viability, % test/control
Assay: Anticancer human tumor 233499-124-R-J3-PDC patient-derived colon adenocarcinoma cell line growth inhibition
Conditions: for viability, T/C: stronger effect = lower value
Procedure, shortened: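 Complex spheroids of tumor cells with HUVEC and human MSCs, exposed to iadademstat combined with other agents. Each agent tested in half-log steps from near clinical Cmax (else 10 microM top), DMSO ≤0.25%.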

[1] = curve of first compound, second compound 0.1 µM
[2] = curve of first compound, second compound 0.316 µM
[3] = curve of first compound, second compound 1 µM
[4] = curve of first compound, second compound 3.16 µM
[5] = curve of first compound, second compound 10 µM
[6] = second compound 0.1 µM, first compound 0.0316 µM
[7] = second compound 0.1 µM, first compound 0.1 µM
[8] = second compound 0.1 µM, first compound 0.316 µM
[9] = second compound 0.1 µM, first compound 1 µM
[10] = second compound 0.316 µM, first compound 0.0316 µM
[11] = second compound 0.316 µM, first compound 0.1 µM
[12] = second compound 0.316 µM, first compound 0.316 µM
[13] = second compound 0.316 µM, first compound 1 µM
[14] = second compound 1 µM, first compound 0.0316 µM
[15] = second compound 1 µM, first compound 0.1 µM
[16] = second compound 1 µM, first compound 0.316 µM
[17] = second compound 1 µM, first compound 1 µM
[18] = second compound 3.16 µM, first compound 0.0316 µM
[19] = second compound 3.16 µM, first compound 0.1 µM
[20] = second compound 3.16 µM, first compound 0.316 µM
[21] = second compound 3.16 µM, first compound 1 µM
[22] = second compound 10 µM, first compound 0.0316 µM
[23] = second compound 10 µM, first compound 0.1 µM
[24] = second compound 10 µM, first compound 0.316 µM
[25] = second compound 10 µM, first compound 1 µM
[26] = second compound 0.1 µM, first compound 3.16 µM
[27] = second compound 0.1 µM, first compound 10 µM
[28] = second compound 0.316 µM, first compound 3.16 µM
[29] = second compound 0.316 µM, first compound 10 µM
[30] = second compound 1 µM, first compound 3.16 µM
[31] = second compound 1 µM, first compound 10 µM
[32] = second compound 3.16 µM, first compound 3.16 µM
[33] = second compound 3.16 µM, first compound 10 µM
[34] = second compound 10 µM, first compound 3.16 µM
[35] = second compound 10 µM, first compound 10 µM
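Note: spheroids exposed to agents for one week before readout.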

COc1cc(Nc2ncc3c(n2)-c2ccc(Cl)cc2C(c2c(F)cccc2OC)=NC3)ccc1C(=O)O + NC1CC1c1ccc(-c2cccc(O)c2)cc1
IC50 [1]: > 1000 nM
IC50 [2]: > 1000 nM
IC50 [3]: < 3.16 nM
IC50 [4]: < 3.16 nM
IC50 [5]: < 3.16 nM
viability, T/C (second compound 0.1 µM, first compound 0.00316 µM): 44.5%
viability, T/C (second compound 0.1 µM, first compound 0.01 µM): 54.3%
viability, T/C [6]: 66.4%
viability, T/C [7]: 72.5%
viability, T/C [8]: 62%
viability, T/C [9]: 102%
viability, T/C (second compound 0.316 µM, first compound 0.00316 µM): 49.5%
viability, T/C (second compound 0.316 µM, first compound 0.01 µM): 59.6%
viability, T/C [10]: 64.1%
viability, T/C [11]: 62.1%
viability, T/C [12]: 62.8%
viability, T/C [13]: 98.4%
viability, T/C (second compound 1 µM, first compound 0.00316 µM): 44.2%
viability, T/C (second compound 1 µM, first compound 0.01 µM): 50.7%
viability, T/C [14]: 53.2%
viability, T/C [15]: 54.3%
viability, T/C [16]: 60.6%
viability, T/C [17]: 82.9%
viability, T/C (second compound 3.16 µM, first compound 0.00316 µM): 39.8%
viability, T/C (second compound 3.16 µM, first compound 0.01 µM): 52.1%
viability, T/C [18]: 70.5%
viability, T/C [19]: 57.2%
viability, T/C [20]: 62.5%
viability, T/C [21]: 88.9%
viability, T/C (second compound 10 µM, first compound 0.00316 µM): 33%
viability, T/C (second compound 10 µM, first compound 0.01 µM): 48.3%
viability, T/C [22]: 56.2%
viability, T/C [23]: 49%
viability, T/C [24]: 52.1%
viability, T/C [25]: 86.1%

Nc1ncn(C2CC(O)C(CO)O2)c(=O)n1 (stereo not drawn)
viability, T/C (compound 0.00316 µM): 81% and 90.1%
viability, T/C (compound 0.01 µM): 88.7% and 101%
viability, T/C (compound 0.0316 µM): 83.8% and 87.1%
viability, T/C (compound 0.1 µM): 89.8% and 79.8%
viability, T/C (compound 0.316 µM): 106% and 94.6%
viability, T/C (compound 1 µM): 104% and 77.4%
IC50 (curve of compound): > 1000 nM

CC(C)c1c(-c2ccccc2)nc2c(C#N)c[nH]n2c1=O + NC1CCC(NC2CC2c2ccccc2)CC1
IC50 [1]: > 10000 nM
IC50 [2]: > 10000 nM
IC50 [3]: > 10000 nM
IC50 [4]: > 10000 nM
IC50 [5]: > 10000 nM
viability, T/C [6]: 119%
viability, T/C [7]: 98.5%
viability, T/C [8]: 99.8%
viability, T/C [9]: 102%
viability, T/C [26]: 118%
viability, T/C [27]: 120%
viability, T/C [10]: 93.6%
viability, T/C [11]: 110%
viability, T/C [12]: 97.3%
viability, T/C [13]: 107%
viability, T/C [28]: 118%
viability, T/C [29]: 115%
viability, T/C [14]: 83.7%
viability, T/C [15]: 104%
viability, T/C [16]: 90%
viability, T/C [17]: 101%
viability, T/C [30]: 100%
viability, T/C [31]: 101%
viability, T/C [18]: 89.1%
viability, T/C [19]: 85.9%
viability, T/C [20]: 96.8%
viability, T/C [21]: 85.6%
viability, T/C [32]: 103%
viability, T/C [33]: 104%
viability, T/C [22]: 83.7%
viability, T/C [23]: 84.8%
viability, T/C [24]: 86.2%
viability, T/C [25]: 83.6%
viability, T/C [34]: 85.9%
viability, T/C [35]: 74.2%

COc1ccc([C@@H](O)c2cc(-c3ncnc4cc(N5CCOCC5)ccc34)c(F)cc2Cl)nn1 + NC1CC1c1ccc(-c2cccc(O)c2)cc1
IC50 [1]: 5190 nM
IC50 [2]: 6670 nM
IC50 [3]: 5490 nM
IC50 [4]: 3620 nM
IC50 [5]: 1710 nM
viability, T/C [6]: 97.3%
viability, T/C [7]: 93.4%
viability, T/C [8]: 95.7%
viability, T/C [9]: 71.5%
viability, T/C [26]: 63%
viability, T/C [27]: 36.3%
viability, T/C [10]: 93.3%
viability, T/C [11]: 98.3%
viability, T/C [12]: 95.5%
viability, T/C [13]: 78.6%
viability, T/C [28]: 78.5%
viability, T/C [29]: 36.1%
viability, T/C [14]: 91.4%
viability, T/C [15]: 80.4%
viability, T/C [16]: 79.1%
viability, T/C [17]: 62%
viability, T/C [30]: 63.1%
viability, T/C [31]: 40.1%
viability, T/C [18]: 92.1%
viability, T/C [19]: 95.8%
viability, T/C [20]: 75.9%
viability, T/C [21]: 67.3%
viability, T/C [32]: 57.7%
viability, T/C [33]: 26.9%
viability, T/C [22]: 69.5%
viability, T/C [23]: 80.2%
viability, T/C [24]: 57.7%
viability, T/C [25]: 49.7%
viability, T/C [34]: 51.2%
viability, T/C [35]: 21.5%

CC1(C)CCC(CN2CCN(c3ccc(C(=O)NS(=O)(=O)c4ccc(NCC5CCOCC5)c([N+](=O)[O-])c4)c(Oc4cnc5[nH]ccc5c4)c3)CC2)=C(c2ccc(Cl)cc2)C1 + NC1CC1c1ccc(-c2cccc(O)c2)cc1
IC50 [1]: 2680 nM
IC50 [2]: 2450 nM
IC50 [3]: 3180 nM
IC50 [4]: 2810 nM
IC50 [5]: 2270 nM
viability, T/C [6]: 84.1%
viability, T/C [7]: 109%
viability, T/C [8]: 113%
viability, T/C [9]: 107%
viability, T/C [26]: 41.1%
viability, T/C [27]: 0.86%
viability, T/C [10]: 114%
viability, T/C [11]: 102%
viability, T/C [12]: 100%
viability, T/C [13]: 111%
viability, T/C [28]: 33.9%
viability, T/C [29]: 0.83%
viability, T/C [14]: 88.7%
viability, T/C [15]: 92%
viability, T/C [16]: 97.8%
viability, T/C [17]: 102%
viability, T/C [30]: 50.2%
viability, T/C [31]: 0.7%
viability, T/C [18]: 100%
viability, T/C [19]: 97.1%
viability, T/C [20]: 91.4%
viability, T/C [21]: 99.3%
viability, T/C [32]: 44.6%
viability, T/C [33]: 0.57%
viability, T/C [22]: 76.7%
viability, T/C [23]: 83.9%
viability, T/C [24]: 72.9%
viability, T/C [25]: 81.1%
viability, T/C [34]: 38.5%
viability, T/C [35]: 0.43%

CC(C)CC(NC(=O)C(Cc1ccccc1)NC(=O)c1cnccn1)B(O)O (stereo not drawn)
viability, T/C (compound 0.000316 µM): 96% and 81.8%
viability, T/C (compound 0.00316 µM): 21.4% and 0.26%
viability, T/C (compound 0.01 µM): 7.18% and 0.25%
viability, T/C (compound 0.0316 µM): 5.21% and 0.25%
viability, T/C (compound 0.1 µM): 3.6% and 0.35%
IC50 (curve of compound): 2.07 nM and 0.496 nM
